Structures can show the parent of a compound that is named as a salt. Where two headings read alike, the source gives them in different places.
Tests used:
[1] = target: T1, hFXR (Homo sapiens, UniProt Q96RI1); assay: Alphascreen coactivator recruitment assay on hFXR; assay type: biochemical
T1 sequence (Q96RI1 1-486): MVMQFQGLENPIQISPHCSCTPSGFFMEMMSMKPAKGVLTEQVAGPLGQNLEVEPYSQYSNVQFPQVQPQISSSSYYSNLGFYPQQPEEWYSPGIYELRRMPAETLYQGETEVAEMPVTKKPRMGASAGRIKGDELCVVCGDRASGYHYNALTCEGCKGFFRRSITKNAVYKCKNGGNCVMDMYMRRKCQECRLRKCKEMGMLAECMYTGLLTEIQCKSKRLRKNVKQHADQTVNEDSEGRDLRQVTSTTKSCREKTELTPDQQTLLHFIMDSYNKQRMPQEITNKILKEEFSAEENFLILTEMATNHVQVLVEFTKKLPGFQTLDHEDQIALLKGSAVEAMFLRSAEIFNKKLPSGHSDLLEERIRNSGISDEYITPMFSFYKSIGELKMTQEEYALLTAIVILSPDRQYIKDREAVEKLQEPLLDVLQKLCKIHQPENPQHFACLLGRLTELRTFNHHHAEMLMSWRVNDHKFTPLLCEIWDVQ
Procedure: (§1) The selectivity of compounds of the invention was evaluated using assay methods known in the art. Specifically, the following assay methods were used: • FXR and LXR: Coactivator Recruitment (alphascreen); • TGR5: cAMP level on human intestinal cell line (NCI-H716); • PXR: Ligands Competition assay (Binding Assay) • CAR: Coactivator Recruitment (Lanthascreen)

[2] = system: HepG2 cell; assay: HepG2 cell cytotoxicity, ATP decrease; assay type: cell-based; conditions: human
Procedure: (§2) Compounds of the invention were evaluated for cytotoxicity using standard methods known in the art. Specifically, cytotoxicity was evaluated using HEPG2 cells and monitoring ATP decrease and determining the EC50 value. […]

[3] = HepG2 cell cytotoxicity, ATP decrease; assay type: cell-based; conditions: human
Procedure: as §2

[4] = target: T2, bovine serum albumin (Bos taurus, UniProt P02769); assay: Albumin binding by equilibrium dialysis; assay type: in vitro ADME; conditions: 100 μM BA in 5% bovine serum albumin-saline, pH 7.2
T2 construct: dissolved at a concentration of 100 μM in 5% bovine serum albumin-saline solution (pH 7.2); from tissue; host or cells: bovine serum (only from the protein's name)
Procedure: The extent of albumin binding was evaluated by equilibrium dialysis at a fixed BA-albumin ratio. BA was dissolved at a concentration of 100 μM in 5% bovine serum albumin-saline solution (pH 7.2) and left to stand for 24 h at 25° C. Two milliliters of this solution was dialyzed in cellulose sacs having a molecular weight cut-off of 12-14,000 against 25 ml of saline solution. The system was equilibrated by mechanical gently shaking for 72 h at 25° C. BA concentrations of the dialyzed solution (corresponding to the free unbound fraction) and of the starting solution were determined with HPLC-ESI-MS/MS in the same conditions of the previous analysis. The percent of albumin binding was calculate from the initial BA concentration and from the unbound concentration in the dialyzed fraction. All these compounds never less present an albumin binding compatible with a relatively fast hepatic uptake, similarly to natural occurring BA. Accordingly different kinetics (slower) of the liver uptake is expected.

[5] = target: T3, LXRα (Homo sapiens, UniProt Q13133); assay: LXR coactivator recruitment (alphascreen); assay type: biochemical; conditions: ref standard T0901317
T3 sequence (Q13133 1-447): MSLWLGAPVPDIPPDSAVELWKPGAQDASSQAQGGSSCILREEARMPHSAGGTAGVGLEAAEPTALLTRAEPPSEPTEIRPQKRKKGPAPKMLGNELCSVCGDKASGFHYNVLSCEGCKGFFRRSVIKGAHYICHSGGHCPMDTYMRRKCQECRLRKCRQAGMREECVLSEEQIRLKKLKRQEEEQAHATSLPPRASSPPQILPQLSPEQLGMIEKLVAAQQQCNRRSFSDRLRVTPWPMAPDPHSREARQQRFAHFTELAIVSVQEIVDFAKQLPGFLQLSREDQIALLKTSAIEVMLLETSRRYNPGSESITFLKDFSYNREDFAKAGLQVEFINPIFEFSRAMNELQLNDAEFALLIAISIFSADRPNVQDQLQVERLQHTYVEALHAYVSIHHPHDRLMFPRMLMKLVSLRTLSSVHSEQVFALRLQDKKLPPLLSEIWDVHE
Procedure: as §1

[6] = target: T4, CAR (Homo sapiens, UniProt Q14994); assay: CAR coactivator recruitment (Lanthascreen); assay type: biochemical
T4 sequence (Q14994 1-352): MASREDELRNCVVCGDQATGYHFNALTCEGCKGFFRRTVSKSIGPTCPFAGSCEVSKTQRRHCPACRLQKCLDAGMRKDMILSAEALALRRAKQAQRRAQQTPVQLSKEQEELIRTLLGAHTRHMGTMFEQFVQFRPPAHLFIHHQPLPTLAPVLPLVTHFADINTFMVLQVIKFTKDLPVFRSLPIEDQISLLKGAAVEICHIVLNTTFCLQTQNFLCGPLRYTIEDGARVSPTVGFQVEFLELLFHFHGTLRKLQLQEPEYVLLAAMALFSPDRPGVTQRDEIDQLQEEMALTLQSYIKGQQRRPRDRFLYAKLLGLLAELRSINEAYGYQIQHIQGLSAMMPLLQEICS
Procedure: as §1

[7] = target: T5, VDR (Homo sapiens, UniProt P11473); assay: NR selectivity assay VDR; conditions: unnamed ref standard 0.005 μM
T5 sequence (P11473 1-427): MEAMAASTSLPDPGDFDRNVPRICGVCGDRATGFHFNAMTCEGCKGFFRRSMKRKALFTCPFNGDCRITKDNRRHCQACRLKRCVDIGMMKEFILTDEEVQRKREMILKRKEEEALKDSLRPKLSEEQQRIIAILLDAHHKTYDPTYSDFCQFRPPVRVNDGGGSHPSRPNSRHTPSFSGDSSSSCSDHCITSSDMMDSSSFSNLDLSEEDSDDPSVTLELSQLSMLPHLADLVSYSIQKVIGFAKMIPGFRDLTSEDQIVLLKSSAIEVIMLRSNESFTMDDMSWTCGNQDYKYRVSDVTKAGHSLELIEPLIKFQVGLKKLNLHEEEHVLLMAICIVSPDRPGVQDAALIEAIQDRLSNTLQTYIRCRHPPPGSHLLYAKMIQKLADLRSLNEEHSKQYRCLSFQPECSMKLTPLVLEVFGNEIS

[8] = NR selectivity table, coactivator recruitment (alphascreen), ref standard CDCA, read-out: FXR EC50
[9] = Table 1, reference standard CDCA, read-out: Alphascreen Assay hFXR EC50

T2 sequence (P02769 25-607): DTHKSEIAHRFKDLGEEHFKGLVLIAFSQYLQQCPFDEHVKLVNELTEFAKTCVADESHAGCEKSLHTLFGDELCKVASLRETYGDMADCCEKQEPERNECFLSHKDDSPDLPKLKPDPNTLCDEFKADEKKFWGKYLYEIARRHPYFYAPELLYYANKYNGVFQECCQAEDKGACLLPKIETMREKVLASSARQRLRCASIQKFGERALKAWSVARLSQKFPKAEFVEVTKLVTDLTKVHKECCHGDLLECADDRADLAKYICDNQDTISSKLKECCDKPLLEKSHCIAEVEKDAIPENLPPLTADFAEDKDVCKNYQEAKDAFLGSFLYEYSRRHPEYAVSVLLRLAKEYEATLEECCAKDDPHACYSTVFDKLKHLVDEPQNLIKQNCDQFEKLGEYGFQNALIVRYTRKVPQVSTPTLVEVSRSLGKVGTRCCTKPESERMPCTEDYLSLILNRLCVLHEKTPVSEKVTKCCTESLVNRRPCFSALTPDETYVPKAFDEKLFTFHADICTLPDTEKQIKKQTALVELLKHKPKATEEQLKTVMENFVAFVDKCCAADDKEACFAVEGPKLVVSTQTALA

Row | SMILES | EC50 [1, 8] [µM] | EC50 [1, 9] [µM] | EC50 [2] [µM] | EC50 [3] [µM] | Albumin Binding [4] [%] | LXRα EC50 [5] | EC50 [6] [µM] | VDR EC50 [7]
1 | CC[C@H]1[C@@H](O)[C@@H]2[C@H](C[C@H](O)[C@]3(C)[C@@H]([C@H](C)CCCS(=O)(=O)[O-])CC[C@@H]23)[C@@]2(C)CC[C@@H](O)C[C@@H]12.[Na+] [Compound 3A, 3α,7α,12α-trihydroxy-6α-ethyl-5β-cholan-24-sulfonate Sodium Salt] | 7 | 7 ± 3 | > 1000 | > 1000 | 81 | No | > 250 | No
2 | CCC1C(O)C2C3CCC(C(C)CC(C)OS(=O)(=O)O)C3(C)CCC2C2(C)CCC(O)CC12 [Compound 2A, 3α,7α,23-trihydroxy-6α-ethyl-23(S)-methyl-24-nor-5β-cholan-23-sulfate Sodium Salt] | 0.14 | 0.145 ± 0.05 | > 1000 | > 1000 | 97 | No | 84 | No
